Experimental data from patent US9771370B2, “Compounds for the inhibition of indoleamine-2,3-dioxygenase” (Merck Patent GmbH, priority 2014, dated 2017).

Biological target: Recombinant human IDO (Homo sapiens, UniProt P14902)
Experiment: Bridge-IT tryptophan fluorescence assay of human IDO-1 inhibition
Assay type: biochemical
Conditions: recombinant human IDO 7.5 nM, L-tryptophan
Method in brief: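 One variant ran L-Trp at 100 μM for 90 min at 37 °C. The other pre-incubated compound for 30 min at 25 °C, then ran 50 μM L-Trp for 60 min at 25 °C.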

Recombinant human IDO, sequence (P14902 whole entry): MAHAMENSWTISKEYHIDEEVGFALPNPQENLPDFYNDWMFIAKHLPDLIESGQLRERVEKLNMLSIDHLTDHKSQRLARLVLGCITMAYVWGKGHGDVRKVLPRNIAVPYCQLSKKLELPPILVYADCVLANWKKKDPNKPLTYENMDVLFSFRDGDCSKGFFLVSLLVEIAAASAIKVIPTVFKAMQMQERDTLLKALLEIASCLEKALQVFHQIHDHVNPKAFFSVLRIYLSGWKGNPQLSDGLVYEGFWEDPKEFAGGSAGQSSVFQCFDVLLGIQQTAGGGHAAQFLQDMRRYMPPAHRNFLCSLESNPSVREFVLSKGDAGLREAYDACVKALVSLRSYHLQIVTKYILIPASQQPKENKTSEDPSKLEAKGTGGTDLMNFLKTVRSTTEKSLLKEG

Row | Compound | IC50
1 | COc1ccc2c(n1)C(CC(N)C1CCC(C)(C)CC1)n1cncc1-2 (single isomer, unassigned) [Compound 119d, 1-(4,4-dimethylcyclohexyl)-2-[10-methoxy-4,6,9-triazatricyclo[6.4.0.0^[2,6]]dodeca-1(8),2,4,9,11-pentaen-7-yl]ethan-1-amine] | > 1 µM
2 | COc1ccc2c(n1)C(CC(N)C1CCC(F)(F)CC1)n1cncc1-2 (single isomer, unassigned) [Compound 120a, 1-(4,4-difluorocyclohexyl)-2-[10-methoxy-4,6,9-triazatricyclo[6.4.0.0^[2,6]]dodeca-1(8),2,4,9,11-pentaen-7-yl]ethan-1-amine] | > 1 µM
3 | COc1ccc2c(n1)C(CC(N)C1CCC(F)(F)CC1)n1cncc1-2 (single isomer, unassigned) [Compound 120b, 1-(4,4-difluorocyclohexyl)-2-[10-methoxy-4,6,9-triazatricyclo[6.4.0.0^[2,6]]dodeca-1(8),2,4,9,11-pentaen-7-yl]ethan-1-amine] | > 1 µM
4 | COc1ccc2c(n1)C(CC(N)C1CCC(F)(F)CC1)n1cncc1-2 (single isomer, unassigned) [Compound 120d, 1-(4,4-difluorocyclohexyl)-2-[10-methoxy-4,6,9-triazatricyclo[6.4.0.0^[2,6]]dodeca-1(8),2,4,9,11-pentaen-7-yl]ethan-1-amine] | > 1 µM
5 | NS(=O)(=O)C1CCC(F)(CCC2c3ccccc3-c3cncn32)CC1 (single isomer, unassigned) [Compound 121b, 4-fluoro-4-[2-[5H-imidazo[4,3-a]isoindol-5-yl]ethyl]cyclohexane-1-sulfonamide] | > 1 µM
6 | NS(=O)(=O)C1CCC(F)(CCC2c3ccccc3-c3cncn32)CC1 (single isomer, unassigned) [Compound 121c, 4-fluoro-4-[2-[5H-imidazo[4,3-a]isoindol-5-yl]ethyl]cyclohexane-1-sulfonamide] | > 1 µM
7 | OC(CC1c2c(ccnc2F)-c2cncn21)C1CCCCC1 (stereo not drawn) [Compound 2a, 1-Cyclohexyl-2-[9-fluoro-4,6,10-triazatricyclo[6.4.0.0^[2,6]]dodeca-1(8),2,4,9,11-pentaen-7-yl]ethan-1-ol] | > 1 µM
8 | OC(CC1c2c(F)cncc2-c2cncn21)C1CCCCC1 (stereo not drawn) [Compound 3a, 1-cyclohexyl-2-[9-fluoro-4,6,11-triazatricyclo[6.4.0.0^[2,6]]dodeca-1(8),2,4,9,11-pentaen-7-yl]ethan-1-ol] | > 1 µM
9 | OC1CCC(C(O)CC2c3ncccc3-c3cncn32)CC1 (stereo not drawn) [Compound 6a, 4-[1-hydroxy-2-[4,6,9-triazatricyclo[6.4.0.0^[2,6]]dodeca-1(8),2,4,9,11-pentaen-7-yl]ethyl]cyclohexan-1-ol] | > 1 µM
10 | OC(CC1c2cnccc2-c2cncn21)C1CCCCC1 (stereo not drawn) [Compound 9a, 1-Cyclohexyl-2-[4,6,10-triazatricyclo[6.4.0.0^[2,6]]dodeca-1(8),2,4,9,11-pentaen-7-yl]ethan-1-ol] | > 1 µM
11 | COc1cc2c(cn1)-c1cncn1C2CC(O)C1CCCCC1 (stereo not drawn) [Compound 11b, 1-cyclohexyl-2-[10-methoxy-4,6,11-triazatricyclo[6.4.0.0^[2,6]]dodeca-1(8),2,4,9,11-pentaen-7-yl]ethan-1-ol] | > 1 µM
12 | OC(CC1c2ncccc2-c2cncn21)c1ccccc1 (stereo not drawn) [Compound 12b, 1-Phenyl-2-[4,6,9-triazatricyclo[6.4.0.0^[2,6]]dodeca-1(8),2,4,9,11-pentaen-7-yl]ethan-1-ol] | > 1 µM
13 | O[C@H]1CC[C@](F)(CC[C@@H]2c3ccccc3-c3cncn32)CC1 [Compound 14a, (1R,4s)-4-(2-((R)-5H-imidazo[5,1-a]isoindol-5-yl)ethyl)-4-fluorocyclohexan-1-ol] | > 1 µM
14 | NC(CC1c2ncccc2-c2cncn21)C1CCCCC1 (stereo not drawn) [Compound 21a, 1-cyclohexyl-2-[4,6,9-triazatricyclo[6.4.0.0^[2,6]]dodeca-1(8),2,4,9,11-pentaen-7-yl]ethan-1-amine] | > 1 µM
15 | COc1cccc2c1-c1cncn1C2CCC1(F)CCC(O)CC1 (stereo not drawn) [Compound 41a, 4-fluoro-4-(2-(9-methoxy-5H-imidazo[5,1-a]isoindol-5-yl)ethyl)cyclohexanol] | > 1 µM
16 | Fc1ccc2c(n1)C(CCC1(F)CCC(F)(F)CC1)n1cncc1-2 (stereo not drawn) [Compound 46, 10-fluoro-7-[2-(1,4,4-trifluorocyclohexyl)ethyl]-4,6,9-triazatricyclo[6.4.0.0^[2,6]]dodeca-1(8),2,4,9,11-pentaene] | > 1 µM
17 | OC1CCC(CCC2c3ncccc3-c3cncn32)CC1 (stereo not drawn) [Compound 47, 4-(2-[4,6,9-triazatricyclo[6.4.0.0^[2,6]]dodeca-1(8),2,4,9,11-pentaen-7-yl]ethyl)cyclohexan-1-ol] | > 1 µM
18 | c1cnc2c(c1)-c1cncn1C2CCC1CCCCC1 (stereo not drawn) [Compound 50, 7-(2-cyclohexylethyl)-4,6,9-triazatricyclo[6.4.0.0^[2,6]]dodeca-1(8),2,4,9,11-pentaene] | 0.1 to 1 µM

Next, values leading:

Row | IC50 | Compound
19 | 0.1 to 1 µM | COc1ccc2c(n1)C(CC(N)C1CCC(F)(F)CC1)n1cncc1-2 (single isomer, unassigned) [Compound 120c, 1-(4,4-difluorocyclohexyl)-2-[10-methoxy-4,6,9-triazatricyclo[6.4.0.0^[2,6]]dodeca-1(8),2,4,9,11-pentaen-7-yl]ethan-1-amine]
20 | < 0.1 µM | NS(=O)(=O)C1CCC(F)(CCC2c3ccccc3-c3cncn32)CC1 (single isomer, unassigned) [Compound 121a, 4-fluoro-4-[2-[5H-imidazo[4,3-a]isoindol-5-yl]ethyl]cyclohexane-1-sulfonamide]
21 | < 0.1 µM | NS(=O)(=O)C1CCC(F)(CCC2c3ccccc3-c3cncn32)CC1 (single isomer, unassigned) [Compound 121d, 4-fluoro-4-[2-[5H-imidazo[4,3-a]isoindol-5-yl]ethyl]cyclohexane-1-sulfonamide]
22 | < 0.1 µM | O[C@H]1CC[C@](F)(CC[C@H]2c3ccccc3-c3cncn32)CC1 [Compound 14b, (1S,4s)-4-(2-((S)-5H-imidazo[5,1-a]isoindol-5-yl)ethyl)-4-fluorocyclohexan-1-ol]
23 | 0.1 to 1 µM | Fc1ccc2c(n1)C(CCC1(F)CCCCC1)n1cncc1-2 (stereo not drawn) [Compound 17, 10-fluoro-7-[2-(1-fluorocyclohexyl)ethyl]-4,6,9-triazatricyclo[6.4.0.0^[2,6]]dodeca-1(8),2,4,9,11-pentaene]
24 | 0.1 to 1 µM | OC(CC1c2nc(F)ccc2-c2cncn21)C1CCCCC1 (stereo not drawn) [Compound 31a, 1-cyclohexyl-2-[10-fluoro-4,6,9-triazatricyclo[6.4.0.0^[2,6]]dodeca-1(8),2,4,9,11-pentaen-7-yl]ethan-1-ol]
25 | 0.1 to 1 µM | COc1ccc2c(n1)C(CC(O)C1CCC(F)(F)CC1)n1cncc1-2 (stereo not drawn) [Compound 33a, 1-(4,4-difluorocyclohexyl)-2-[10-methoxy-4,6,9-triazatricyclo[6.4.0.0^[2,6]]dodeca-1(8),2,4,9,11-pentaen-7-yl]ethan-1-ol]
26 | 0.1 to 1 µM | Oc1cccc2c1-c1cncn1C2CCC1(F)CCC(O)CC1 (stereo not drawn) [Compound 44a, 5-(2-(1-fluoro-4-hydroxycyclohexyl)ethyl)-5H-imidazo[5,1-a]isoindol-9-ol]
27 | 0.1 to 1 µM | FC1(F)CCC(CCC2c3ncccc3-c3cncn32)CC1 (stereo not drawn) [Compound 49, 7-[2-(4,4-difluorocyclohexyl)ethyl]-4,6,9-triazatricyclo[6.4.0.0^[2,6]]dodeca-1(8),2,4,9,11-pentaene]
